Publication PMC10799935, “Discovery of a peripheral 5HT2A antagonist as a clinical candidate for metabolic dysfunction-associated steatohepatitis” (Nature Communications, 2024)
Where “and” joins values, the source holds several entries; their conditions need not be identical. Identical values can stand only once.

Legend:
5HT4E (h) = target: T1, 5HT4E (h) (Homo sapiens, UniProt Q13639); test: 5HT subtype antagonism assay (Eurofins Cerep): 5HT4E; format: cell-based; settings: concentration not given
T1 construct: host or cells: CHO cells
T1 sequence (Q13639 1-378 isoform Q13639-5): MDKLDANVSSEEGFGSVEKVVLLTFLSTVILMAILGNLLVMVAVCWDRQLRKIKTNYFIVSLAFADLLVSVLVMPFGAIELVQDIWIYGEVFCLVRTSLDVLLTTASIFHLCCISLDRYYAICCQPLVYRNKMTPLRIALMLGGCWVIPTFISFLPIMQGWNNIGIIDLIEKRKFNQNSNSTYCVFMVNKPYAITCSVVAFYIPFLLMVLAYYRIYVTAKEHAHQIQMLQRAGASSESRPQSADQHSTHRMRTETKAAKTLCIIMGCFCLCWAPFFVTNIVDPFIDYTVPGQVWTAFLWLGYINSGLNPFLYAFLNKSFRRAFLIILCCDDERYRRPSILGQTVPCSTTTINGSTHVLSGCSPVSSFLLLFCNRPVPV
Experimental: The derivatives were evaluated at a concentration of 1 μM for their antagonist activity on the 5HT2A receptor (Tables 1–3)[33],[34]. Human 5HT2A stably transfected HEK293 cells (a type of cell derived from kidney embryos)[20] were seeded in a 96-well plate (Costar; 3603) at a density of 9 × 10^4 in 100 μL of minimum essential medium (Welgene; LM007-86) containing 10% dialyzed fetal bovine serum (Gibco; 30067–334) and 1% penicillin/streptomycin (Gibco; 15140-122) and kept in a 37 °C incubator for 24 h. The cells were stained with 100 μL of cytosolic calcium dye using the FLIPR calcium 6 assay solution (Molecular devices, #R8190) supplemented with 2.5 mM probenecid (Sigma; P8761) and incubated for 1 h at 37 °C. After 1 h, the designated amount of the compound was treated in each well and incubated for another 1 h at 37 °C. Then, the cells were loaded in a Flexstation 3 microplate reader (Molecular Devices; FlexStaion) and 50 μL of 5 μM 5HT (serotonin hydrochloride, Sigma; H9523) was injected from a source plate (Nunc 96-well polystyrene conical bottom MicroWell Plate, Thermo; 249662) and the fluorescence intensity (Ex/Em-485nm/ 525 nm) was measured. […]
Antagonism assay Source Stimulus Incubation Measured Detection Method […]

5HT2A = 5HT2A (Homo sapiens, UniProt P28223); test: 5HT subtype antagonism assay (selectivity panel): 5HT2A; settings: concentration not given
Chain of 5HT2A (P28223 whole entry): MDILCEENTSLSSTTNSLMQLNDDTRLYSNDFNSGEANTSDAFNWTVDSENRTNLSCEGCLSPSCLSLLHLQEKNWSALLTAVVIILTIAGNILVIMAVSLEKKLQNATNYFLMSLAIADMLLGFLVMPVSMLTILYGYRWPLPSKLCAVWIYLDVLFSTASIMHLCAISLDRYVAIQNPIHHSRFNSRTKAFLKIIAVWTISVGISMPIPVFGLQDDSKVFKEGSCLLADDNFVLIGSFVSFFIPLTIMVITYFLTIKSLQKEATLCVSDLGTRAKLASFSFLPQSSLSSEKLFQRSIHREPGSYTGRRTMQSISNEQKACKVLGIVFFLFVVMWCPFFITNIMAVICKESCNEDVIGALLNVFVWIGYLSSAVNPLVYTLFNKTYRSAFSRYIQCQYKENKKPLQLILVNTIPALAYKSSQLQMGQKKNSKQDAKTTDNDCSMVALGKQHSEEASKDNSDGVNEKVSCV

[1] = test system: CDAHFD-fed C57BL/6 J mice; test: CDAHFD mice (12 weeks): body weight and clinical signs; format: in vivo, mouse; design: Body weight: unit: g; settings: for Body weight, Mean Diff.: Tukey; for Body weight, Mean (one-way ANOVA): mean of 13 weekly values
Excerpt: C57BL/6 J male mice were purchased from the Japan SLC. Inc (Hamamatsu, Japan). Mice (5 weeks old) were fed Teklad Certitied Irradiated Global 18% protein rodent diet purchased from Dooyeol Biotech Co. Ltd (Seoul, South Korea) during the acclimation period. The liver fibrosis/inflammation-induced groups were CDAHFD-fed (A06071302, Research diet). […] All animal experiments complied with the relevant ethical regulations.

5HT2C (h) = 5HT2C (h) (Homo sapiens, UniProt P28335); test: 5HT subtype antagonism assay (Eurofins Cerep): 5HT2C; format: cell-based
Chain of 5HT2C (h) (P28335 33-458): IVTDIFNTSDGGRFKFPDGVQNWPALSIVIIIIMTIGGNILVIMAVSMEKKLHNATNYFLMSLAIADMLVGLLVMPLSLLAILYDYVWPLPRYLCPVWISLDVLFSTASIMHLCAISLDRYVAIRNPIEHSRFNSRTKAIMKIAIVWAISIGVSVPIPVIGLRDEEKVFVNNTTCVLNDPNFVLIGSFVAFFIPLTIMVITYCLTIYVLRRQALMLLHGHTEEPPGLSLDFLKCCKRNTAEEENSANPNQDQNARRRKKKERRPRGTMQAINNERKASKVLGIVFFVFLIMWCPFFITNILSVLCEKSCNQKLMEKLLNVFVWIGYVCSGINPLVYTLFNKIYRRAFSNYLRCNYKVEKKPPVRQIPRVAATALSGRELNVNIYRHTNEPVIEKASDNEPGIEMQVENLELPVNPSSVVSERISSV

Structure (SMILES): Cc1nc2n(c(=O)c1CCN1CCC(=C3c4ccc(Cl)cc4CCc4cccnc43)CC1)CCCC2O (centres unmarked) [Compound 11c]
- Selectivity 4E: % inhibition (5HT4E (h)): -3%
- Selectivity 2 A: % inhibition (5HT2A): 102%
- body weight changes among the CDAHFD groups ([1]; 12 weeks): not significantly different
- clinical signs during the study period ([1]; CDAHFD mice, 5 and 10 mpk PO daily, 12 weeks): no abnormal clinical signs were observed
- Body weight, Average ([1]; CDAHFD+11c 5mpk, week 0, 5 mice): 20.6 g
- Body weight ([1]; CDAHFD+11c 5mpk, week 0, individual mouse, in g (unit assumed)): 21.7 and 20.6 and 20.4 and 20.7 and 19.7
- Body weight, Average ([1]; CDAHFD+11c 5mpk, week 1, 5 mice): 20.6 g
- Body weight ([1]; CDAHFD+11c 5mpk, week 1, individual mouse, in g (unit assumed)): 21.2 and 20.8 and 20.5 and 20.7 and 19.7
- Body weight, Average ([1]; CDAHFD+11c 5mpk, week 2, 5 mice): 20.1 g
- Body weight, Average ([1]; CDAHFD+11c 5mpk, week 3, 5 mice): 19.9 g
- Body weight, Average ([1]; CDAHFD+11c 5mpk, week 4, 5 mice): 20.3 g
- Body weight, Average ([1]; CDAHFD+11c 5mpk, week 5, 5 mice): 20.5 g
- Body weight ([1]; CDAHFD+11c 5mpk, week 5, individual mouse, in g (unit assumed)): 20.8 and 21.2 and 20.5 and 20.2 and 19.9
- Body weight, Average ([1]; CDAHFD+11c 5mpk, week 6, 5 mice): 20.8 g
- Body weight ([1]; CDAHFD+11c 5mpk, week 6, individual mouse): 20.9 (2×) and 21.4 and 20.7 and 20.3
- Body weight, Average ([1]; CDAHFD+11c 5mpk, week 7, 5 mice): 21.4 g
- Body weight ([1]; CDAHFD+11c 5mpk, week 7, individual mouse): 22.0 (2×) and 21.7 and 21.0 and 20.4
- Body weight, Average ([1]; CDAHFD+11c 5mpk, week 8, 5 mice): 21.6 g
- Body weight ([1]; CDAHFD+11c 5mpk, week 8, individual mouse, in g (unit assumed)): 22.3 and 22.1 and 21.9 and 21.5 and 20.3
- Body weight, Average ([1]; CDAHFD+11c 5mpk, week 9, 5 mice): 22.1 g
- Body weight ([1]; CDAHFD+11c 5mpk, week 9, individual mouse): 23.0 and 22.4 (2×) and 21.7 and 20.9
- Body weight, Average ([1]; CDAHFD+11c 5mpk, week 10, 5 mice): 22.2 g
- Body weight ([1]; CDAHFD+11c 5mpk, week 10, individual mouse, in g (unit assumed)): 23.1 and 22.5 and 22.4 and 22.3 and 20.8
- Body weight, Average ([1]; CDAHFD+11c 5mpk, week 11, 5 mice): 22.5 g
- Body weight ([1]; CDAHFD+11c 5mpk, week 11, individual mouse, in g (unit assumed)): 23.6 and 23.2 and 22.9 and 22.3 and 20.7
- Body weight, Average ([1]; CDAHFD+11c 5mpk, week 12, 5 mice): 22.5 g
- Body weight ([1]; CDAHFD+11c 5mpk, week 12, individual mouse, in g (unit assumed)): 23.4 and 23.6 and 22.5 and 22.1 and 20.9
- Body weight, Average ([1]; CDAHFD+11c 10mpk, week 0, 5 mice): 20.6 g
- Body weight ([1]; CDAHFD+11c 10mpk, week 0, individual mouse): 21.3 (2×) and 20.1 and 20.3 and 20.0
- Body weight, Average ([1]; CDAHFD+11c 10mpk, week 1, 5 mice): 20.4 g
- Body weight ([1]; CDAHFD+11c 10mpk, week 1, individual mouse): 20.1 and 19.8 and 20.3 and 20.9 (2×)
- Body weight, Average ([1]; CDAHFD+11c 10mpk, week 2, 5 mice): 20.3 g
- Body weight, Average ([1]; CDAHFD+11c 10mpk, week 3, 5 mice): 20.3 g
- Body weight, Average ([1]; CDAHFD+11c 10mpk, week 4, 5 mice): 20.5 g
- Body weight, Average ([1]; CDAHFD+11c 10mpk, week 5, 5 mice): 20.9 g
- Body weight ([1]; CDAHFD+11c 10mpk, week 5, individual mouse): 20.9 (2×) and 20.6 and 22.0 and 20.3
- Body weight, Average ([1]; CDAHFD+11c 10mpk, week 6, 5 mice): 21.2 g
- Body weight ([1]; CDAHFD+11c 10mpk, week 6, individual mouse, in g (unit assumed)): 21.4 and 20.9 and 22.2 and 20.8 and 20.5
- Body weight, Average ([1]; CDAHFD+11c 10mpk, week 7, 5 mice): 21.5 g
- Body weight ([1]; CDAHFD+11c 10mpk, week 7, individual mouse, in g (unit assumed)): 21.9 and 21.0 and 22.3 and 21.1 and 21.2
- Body weight, Average ([1]; CDAHFD+11c 10mpk, week 8, 5 mice): 21.8 g
- Body weight ([1]; CDAHFD+11c 10mpk, week 8, individual mouse): 22.0 and 21.2 and 23.0 and 21.4 (2×)
- Body weight, Average ([1]; CDAHFD+11c 10mpk, week 9, 5 mice): 21.8 g
- Body weight ([1]; CDAHFD+11c 10mpk, week 9, individual mouse, in g (unit assumed)): 22.6 and 21.2 and 22.8 and 21.5 and 21.1
- Body weight, Average ([1]; CDAHFD+11c 10mpk, week 10, 5 mice): 22 g
- Body weight ([1]; CDAHFD+11c 10mpk, week 10, individual mouse, in g (unit assumed)): 22.4 and 21.7 and 23.1 and 21.6 and 21.4
- Body weight, Average ([1]; CDAHFD+11c 10mpk, week 11, 5 mice): 22.4 g
- Body weight ([1]; CDAHFD+11c 10mpk, week 11, individual mouse): 22.7 and 22.1 (2×) and 23.5 and 21.8
- Body weight, Average ([1]; CDAHFD+11c 10mpk, week 12, 5 mice): 22.5 g
- Body weight ([1]; CDAHFD+11c 10mpk, week 12, individual mouse): 22.9 and 22.3 (2×) and 23.3 and 21.6
- Body weight, Mean Diff. ([1]; Column A (Vehicle, no CDAHFD) vs. Column C (11c 5mpk), in g (unit assumed)): 3.52
- Body weight, Mean Diff. ([1]; Column A (Vehicle, no CDAHFD) vs. Column D (11c 10mpk), in g (unit assumed)): 3.44
- Body weight, Mean Diff. ([1]; Column B (CDAHFD+vehicle) vs. Column C (11c 5mpk), in g (unit assumed)): 0.1462
- Body weight, Mean Diff. ([1]; Column B (CDAHFD+vehicle) vs. Column D (11c 10mpk), in g (unit assumed)): 0.06615
- Body weight, Mean Diff. ([1]; Column C (11c 5mpk) vs. Column D (11c 10mpk)): -0.08
- Body weight, Mean (one-way ANOVA) ([1]; Column C (CDAHFD+11c 5mpk), in g (unit assumed)): 21.17
- Body weight, Mean (one-way ANOVA) ([1]; Column D (CDAHFD+11c 10mpk), in g (unit assumed)): 21.25
- Selectivity 2 C: % inhibition (5HT2C (h); concentration not given): 103%
- IC50 (5HT2C (h); read-out: Selectivity 2 C: IC50): 170 nM
